Source: patent US20070249637A1, “Inhibitors Of Hepatitis C Virus Protease, And Compositions And Treatments Using The Same” (priority 2004, published 2007)

Assays:
[1] = test system: HCV dual reporter subgenomic replicon (B6b cell line); experiment: HCV dual reporter subgenomic replicon assay, Renilla luciferase (antiviral activity); assay type: cell-based; conditions: Hepatitis C virus, 72 h; 50% reduction of Renilla luciferase expression, 3 days incubation
Protocol: The compounds described herein were tested for antiviral activity utilizing a dual-reporter replicon assay as described in U.S. patent application Ser. No. 10/818,075 (the '075 application), filed Apr. 5, 2004. The disclosure of the '075 application is incorporated herein.
(§1) Cell-based antiviral activity was evaluated in the previously described HCV dual reporter subgenomic replicon system (the '075 application). With this system, the effects of a compound on both HCV replication and cell viability can be simultaneously determined by measuring the intracellular levels of two separate reporter proteins. The dicistronic selectable replicon contains the Renilla luciferase gene such that Renilla luciferase activity within stably-transfected cells serves as a marker of HCV replication. The firefly luciferase gene is stably integrated into and expressed by the Huh-7 host cells. Since firefly luciferase activity is dependent upon cellular transcription and translation, firefly luciferase activity serves as an indicator of cell viability.
(§2) The dual reporter selectable replicon cell line (B6b) was maintained in DMEM supplemented with 10% FBS, L-glutamine, non-essential amino acids, penicillin, streptomycin, and selection agents (200 ug/ml G418 and 6 ug/ml blastocidin). On the first day of the experiment, cells were trypsinized, washed, and diluted in medium lacking the selection agents. Cells were transferred to 96-well, black-walled, clear bottom plates at a density of 2×10^4 cells in 150 ul of medium per well. Cells were allowed to settle for 60 to 90 minutes while compounds were being prepared. Each compound was initially diluted to a 4× working stock (2.56% DMSO in tissue culture medium) that was then serially diluted nine times in half log increments in medium with 2.56% DMSO. Fifty microliters of each dilution were then added in triplicate to the plated cells in order to obtain final IX compound concentrations with 0.64% DMSO. Typical testing concentrations ranged from 320 uM to 10 nM. Control wells containing 0.64% DMSO without compound were also included on each plate.
(§3) After 3 days of incubation under humidity at 37° C. with 5% CO2, plates were microscopically examined for compound precipitation and cell death. Tissue culture medium was then aspirated and cells were lysed with 20 ul of 1× Passive Lysis Buffer (Promega, Madison, Wis.). Reporter activity was measured using a MicroBeta Jet 1450 (Perkin Elmer, Boston, Mass.) following sequential 50 ul additions of firefly and Renilla luciferase substrates as described in the manufacturers protocol (Promega). Luciferase activities were expressed as a percentage of the signals observed in the compound-free control wells. The amount of compound required to reduce Renilla luciferase expression by 50% is defined as the 50% effective concentration, or EC50. The amount of compound that reduces firefly luciferase expression by 50% is defined as the 50% cytotoxic concentration, or CC50. A therapeutic index (TI) is calculated by dividing the CC50 by the EC50.

in vitro = assay type: cell-based; conditions: human; 50% reduction of firefly luciferase expression, 3 days incubation; read-out: Replicon CC50
Protocol: as §1, §2, §3

[2] = biological target: T1, full-length NS3-NS4A enzyme (Hepatitis C virus genotype 1a, UniProt P27958); experiment: HCV protease assay (continuous FRET, full-length enzyme); assay type: biochemical; conditions: 3 nM full-length NS3-NS4A, 3 uM depsipeptide FRET substrate S1; competitive inhibition fit
T1 construct: 3 nM full-length NS3-NS4A enzyme
T1 sequence (P27958 1027-1657): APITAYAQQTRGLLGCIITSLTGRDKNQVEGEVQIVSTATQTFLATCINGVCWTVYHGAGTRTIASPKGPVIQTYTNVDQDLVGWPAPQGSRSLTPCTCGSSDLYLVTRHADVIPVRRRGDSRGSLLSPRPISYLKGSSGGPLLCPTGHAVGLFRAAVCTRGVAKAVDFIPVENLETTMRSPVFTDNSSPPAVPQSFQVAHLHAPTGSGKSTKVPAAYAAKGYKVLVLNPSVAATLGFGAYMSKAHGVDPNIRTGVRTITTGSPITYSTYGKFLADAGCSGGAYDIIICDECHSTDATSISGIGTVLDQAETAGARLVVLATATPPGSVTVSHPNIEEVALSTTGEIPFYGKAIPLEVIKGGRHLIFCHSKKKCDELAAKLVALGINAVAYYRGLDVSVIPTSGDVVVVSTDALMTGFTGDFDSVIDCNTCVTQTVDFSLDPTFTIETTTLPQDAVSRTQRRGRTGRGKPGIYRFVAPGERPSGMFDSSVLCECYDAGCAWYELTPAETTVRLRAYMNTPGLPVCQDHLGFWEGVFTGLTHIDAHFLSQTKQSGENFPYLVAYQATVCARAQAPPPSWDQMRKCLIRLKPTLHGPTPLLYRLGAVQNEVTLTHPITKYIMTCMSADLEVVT
T1 sequence (P27958 1658-1711): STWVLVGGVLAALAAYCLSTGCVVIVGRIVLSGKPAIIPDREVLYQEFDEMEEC
Protocol: HCV protease activity and compound inhibition was monitored using a continuous, fluorescence resonance energy transfer (FRET) assay. Test compounds at various concentrations were added to assay buffer (50 mM MOPS pH 7.5, 50 mM NaCl, 20% glycerol, 0.025% Triton-X 100, 1 mM tris(2-carboxyethyl)phosphine) containing 3 uM depsipeptide FRET substrate S1 (Anaspec) (see Taliani et al. Analytical Biochemistry, 240, 60-67 (1996)) in a white, non-binding 96-well plate (Corning). The reaction was started by the addition of 3 nM full-length NS3-NS4A enzyme. The increase in fluorescence intensity following peptide cleavage was monitored using a Safire fluorescence plate reader (Tecan). The excitation and emission wavelengths were 340 nm and 500 nm, respectively. Inhibition constants (KI) were calculated by non-linear regression analysis using an equation derived for competitive inhibition.

SMILES | EC50 [1] [nM] | CC50 at 3 days (in vitro) [nM] | Ki [2] [nM]
O=C(N[C@H]1CCCCC/C=C\[C@@H]2C[C@@]2(C(=O)O)NC(=O)[C@@H]2C[C@@H](Oc3cc(-c4ccccn4)nc4ccsc34)CN2C1=O)OC1CCCC1 [Example 11, (2R,12Z,13aS,14aR,16aS)-6-{[(cyclopentyloxy)carbonyl]amino}-5,16-dioxo-2-[(5-pyridin-2-ylthieno[3,2-b]pyridin-7-yl)oxy]-1,2,3,6,7,8,9,10,11,13a,14,15,16,16a-tetradecahydrocyclopropa[e]pyrrolo[1,2-a][1,4]diazacyclopentadecine-14a(5H)-carboxylic acid] | 110 | 86000 | 6.6
O=C(N[C@H]1CCCCC/C=C\[C@@H]2C[C@@]2(C(=O)O)NC(=O)[C@@H]2C[C@@H](Oc3cc(-c4ccccn4)nc4ccsc34)CN2C1=O)OC1CCC1 [Example 13, (2R,6S,12Z,13aS,14aR,16aS)-6-{[(Cyclobutyloxy)carbonyl]amino}-5,16-dioxo-2-[(5-pyridin-2-ylthieno[3,2-b]pyridin-7-yl)oxy]-1,2,3,6,7,8,9,10,11,13a,14,15,16,16a-tetradecahydrocyclopropa[e]pyrrolo[1,2-a][1,4]diazacyclopentadecine-14a(5H)-carboxylic acid] | 310 | 161000 | 9
CC(C)(C)OC(=O)N[C@H]1CCCCC/C=C\[C@@H]2C[C@@]2(C(=O)O)NC(=O)[C@@H]2C[C@@H](Oc3cc(-c4ccccn4)nc4ccsc34)CN2C1=O [Example 14, (2R,6S,12Z,13aS,14aR,16aS)-6-[(Tert-butoxycarbonyl)amino]-5,16-dioxo-2-[(5-pyridin-2-ylthieno[3,2-b]pyridin-7-yl)oxy]-1,2,3,6,7,8,9,10,11,13a,14,15,16,16a-tetradecahydrocyclopropa[e]pyrrolo[1,2-a][1,4]diazacyclopentadecine-14a(5H)-carboxylic acid] | 610 | 92000 | 8.9
O=C(CC1CC1)N[C@H]1CCCCC/C=C\[C@@H]2C[C@@]2(C(=O)O)NC(=O)[C@@H]2C[C@@H](Oc3cc(-c4ccccn4)nc4ccsc34)CN2C1=O [Example 16, (2R,6S,12Z,13aS,14aR,16aS)-6-[(Cyclopropylacetyl)amino]-5,16-dioxo-2-[(5-pyridin-2-ylthieno[3,2-b]pyridin-7-yl)oxy]-1,2,3,6,7,8,9,10,11,13a,14,15,16,16a-tetradecahydrocyclopropa[e]pyrrolo[1,2-a][1,4]diazacyclopentadecine-14a(5H)-carboxylic acid] | 140 | 251000 | 11
O=C(N[C@H]1CCCCC/C=C\[C@@H]2C[C@@]2(C(=O)O)NC(=O)[C@@H]2C[C@@H](Oc3nc(-c4ccccn4)nc4sccc34)CN2C1=O)OC1CCCC1 [Example 26, (2R,6S,12Z,13aS,14aR,16aS)-6-{[(Cyclopentyloxy)carbonyl]amino}-5,16-dioxo-2-[(2-pyridin-2-ylthieno[2,3-d]pyrimidin-4-yl)oxy]-1,2,3,6,7,8,9,10,11,13a,14,15,16,16a-tetradecahydrocyclopropa[e]pyrrolo[1,2-a][1,4]diazacyclopentadecine-14a(5H)-carboxylic acid] | 100 | 117000 | 8.5
O=C(N[C@H]1CCCCC/C=C\[C@@H]2C[C@@]2(C(=O)O)NC(=O)[C@@H]2C[C@@H](Oc3nc(-c4ccccn4)nc4sccc34)CN2C1=O)OC1CCC1 [Example 28, (2R,6S,12Z,13aS,14aR,16aS)-6-{[(cyclobutyloxy)carbonyl]amino}-5,16-dioxo-2-[(2-pyridin-2-ylthieno[2,3-d]pyrimidin-4-yl)oxy]-1,2,3,6,7,8,9,10,11,13a,14,15,16,16a-tetradecahydrocyclopropa[e]pyrrolo[1,2-a][1,4]diazacyclopentadecine-14a(5H)-carboxylic acid] | 420 | 59000 | 21
CC(C)(C)OC(=O)N[C@H]1CCCCC/C=C\[C@@H]2C[C@@]2(C(=O)O)NC(=O)[C@@H]2C[C@@H](Oc3nc(-c4ccccn4)nc4sccc34)CN2C1=O [Example 29, (2R,6S,12Z,13aS,14aR,16aS)-6-[(tert-butoxycarbonyl)amino]-5,16-dioxo-2-[(2-pyridin-2-ylthieno[2,3-d]pyrimidin-4-yl)oxy]-1,2,3,6,7,8,9,10,11,13a,14,15,16,16a-tetradecahydrocyclopropa[e]pyrrolo[1,2-a][1,4]diazacyclopentadecine-14a(5H)-carboxylic acid] | 420 | 13000 | 42
O=C(CC1CC1)N[C@H]1CCCCC/C=C\[C@@H]2C[C@@]2(C(=O)O)NC(=O)[C@@H]2C[C@@H](Oc3nc(-c4ccccn4)nc4sccc34)CN2C1=O [Example 31, (2R,6S,12Z,13aS,14aR,16aS)-6-[(Cyclopropylacetyl)amino]-5,16-dioxo-2-[(2-pyridin-2-ylthieno[2,3-d]pyrimidin-4-yl)oxy]-1,2,3,6,7,8,9,10,11,13a,14,15,16,16a-tetradecahydrocyclopropa[e]pyrrolo[1,2-a][1,4]diazacyclopentadecine-14a(5H)-carboxylic acid] | 250 | 168000 | 39
O=C(N[C@H]1CCCCC/C=C\[C@@H]2C[C@@]2(C(=O)O)NC(=O)[C@@H]2C[C@@H](Oc3nc(-c4ccccn4)nc4ccsc34)CN2C1=O)OC1CCCC1 [Example 41, (2R,6S,12Z,13aS,14aR,16aS)-6-{[(cyclopentyloxy)carbonyl]amino}-5,16-dioxo-2-[(2-pyridin-2-ylthieno[3,2-d]pyrimidin-4-yl)oxy]-1,2,3,6,7,8,9,10,11,13a,14,15,16,16a-tetradecahydrocyclopropa[e]pyrrolo[1,2-a][1,4]diazacyclopentadecine-14a(5H)-carboxylic acid] | 34 | 87000 | 5.2
O=C(N[C@H]1CCCCC/C=C\[C@@H]2C[C@@]2(C(=O)O)NC(=O)[C@@H]2C[C@@H](Oc3nc(-c4ccccn4)nc4ccsc34)CN2C1=O)OC1CCC1 [Example 43, (2R,6S,12Z,13aS,14aR,16aS)-6-{[(cyclobutyloxy)carbonyl]amino}-5,16-dioxo-2-[(2-pyridin-2-ylthieno[3,2-d]pyrimidin-4-yl)oxy]-1,2,3,6,7,8,9,10,11,13a,14,15,16,16a-tetradecahydrocyclopropa[e]pyrrolo[1,2-a][1,4]diazacyclopentadecine-14a(5H)-carboxylic acid] | 190 | > 320000 | 20
CC(C)(C)OC(=O)N[C@H]1CCCCC/C=C\[C@@H]2C[C@@]2(C(=O)O)NC(=O)[C@@H]2C[C@@H](Oc3nc(-c4ccccn4)nc4ccsc34)CN2C1=O [Example 44, (2R,6S,12Z,13aS,14aR,16aS)-6-[(Tert-butoxycarbonyl)amino]-5,16-dioxo-2-[(2-pyridin-2-ylthieno[3,2-d]pyrimidin-4-yl)oxy]-1,2,3,6,7,8,9,10,11,13a,14,15,16,16a-tetradecahydrocyclopropa[e]pyrrolo[1,2-a][1,4]diazacyclopentadecine-14a(5H)-carboxylic acid] | 150 | 159000 | 20
